# Reference: patent US9279107B2, “Simplified basic media for human pluripotent cell culture” (WISCONSIN ALUMNI RESEARCH FOUNDATION, priority 2010, dated 2016)
# What was measured:
# Type in all cases: cell-based, human
# [1] = test system: H1 cells; assay: NANOG mRNA expression; conditions: added to DF5S; NODAL 100 ng/ml or TGF-β 2 ng/ml; compared to DF5S
# Source text: DF5S was used to expand H1 cells. Cells grown in DF5S were more prone to differentiate than cells grown in TeSR™. However, H1 cells could be grown for several weeks (more than 15 passages), during which the cells maintained human ES cell morphology and high levels of OCT4 expression (FIG. 1E, FIG. 1F). […] DF5S+NODAL also supported pluripotency of the two tested human iPS cell lines, as determined by high expression of the pluripotency marker OCT4. All cells (hES cells and iPS cells) grown in DF5S with either NODAL or TGF-β maintained a normal karyotype after long-term passage.
# [2] = test system: iPS cells; assay: Long-term pluripotency of lentiviral iPS cell lines; conditions: added to DF5SFe; TGF-β 2 ng/ml or NODAL 100 ng/ml
# Source text: Human ES cell lines, such as H1 and H9 have a culture history that includes exposure to various complex culture components, such as FBS, feeder cells, and knockout serum replacer. Exposure to these components could conceivably create dependency on these components and, consequently, alter cellular response to simplified media. Culture history might play a lesser role for iPS cells, derived from reprogrammed somatic cells, as derivation conditions are less complex. Therefore, different factors were tested with two original lentiviral iPS cell lines (Yu, et al., Science 318:1917 (2007)) grown in DF5SFe. Cells were transferred from MEF plates directly into DF5SFe medium for one passage and then passaged into various growth factor conditions. […] Pluripotency surface markers SSEA4, SSEA3, Tra-1-60, and Tra-1-81 were also expressed. Cells with normal karyotypes were continuously maintained for more than 20 passages. The cells were capable of forming teratomas 5-7 weeks after injection into severe combined immunodeficient (SCID) mice.
# [3] = test system: patient cell lines OAT, PRPF8-2, GRC M1-29; assay: Reprogramming of adult donor cell lines with episomal vectors; conditions: TGF-β added to the reprogramming media
# [4] = test system: H1 cells; assay: Oct4 expression by flow cytometry as indicator of pluripotency
# Description: As described in Example 3, human pluripotent cells, such as H1, H9, and iPS cells, could be grown and passaged over 15 times in DF5S but were prone to differentiate, such that extra care is needed to sustain pluripotency in DF5S. Because pluripotency could be maintained more easily in TeSR™, growth factors present in TeSR™ were added individually to DF5SFe used to grow H1 cells that were previously cultured in DF5S without differentiating to identify factors supporting long-term pluripotency. Cells were passaged approximately one day after reaching confluency, facilitating cell differentiation, and Oct4 expression, assessed by flow cytometry, was used as indicator of pluripotency.
# Human pluripotent cells grown in DF5SFe elongated and lined up along each other, resembling a “spindle” shape just prior to differentiation. […] Thus, recombinant proteins of the TGF-β pathway were tested for their ability to support long-term pluripotency.
# [5] = test system: foreskin cells; assay: Reprogramming of foreskin fibroblasts to iPS cells; conditions: foreskin fibroblasts
# Description: Available reprogramming protocols include incubation of the cells in FBS in the first several days after viral transduction or electroporation, prior to switching the cells to UM100 (U.S. Pat. No. 7,439,064, incorporated herein as if set forth in its entirety) or CM. The simplified media described in previous Examples were tested for their ability to support reprogramming.
# To determine if DF5S-based media can be used for viral-free iPS cell derivation, foreskin cells were reprogrammed using a viral-free episomal vector, as described in Yu et al., Science 324:797 (2009), incorporated herein by reference as if set forth in its entirety, at hypoxic conditions (O5C10).
# Plasmid combinations #6 and #19 were used for the reprogramming. In order to enhance the plasmid entry into the nucleus, ENBA mRNA was electroporated along with plasmid DNA. Around one million cells were transferred onto two 6-well plates in DF5SFeC for 5 days. Medium was then switched to DF5SFe for another 18-25 days. Cells of some of the wells were passaged for a second time using a 1:6 ratio at different time points.
substance,measurement,setting,value
transforming growth factor beta [TGF-β],NANOG mRNA level,[1],significantly higher levels of NANOG mRNA
same,long-term pluripotency,[2],supported long-term pluripotency of iPS cells
same,number of iPS clones,[3],not increased significantly
same,total number of colonies,[3],increased significantly
same,Oct4 expression,[4]; DF5SFe supplemented with TGF-β at TeSR concentration (0.6 ng/ml),low levels of Oct4 expression
same,Oct4 expression,[4]; DF5SFe supplemented with TGF-β at higher concentration (1 ng/ml),maintain high Oct4 expression
same,number of colonies during reprogramming,[5],increased numbers of colonies
same,number of true iPS cell colonies,[5]; TGF-β addition,remained low
